Assays:
AsPC-1 (K-Ras G12D) [1] = assay: Potency assay: pERK; format: cell-based; conditions: Homo sapiens, ASPC1, read-out: pERK EC50
AsPC-1 (K-Ras G12D) [2] = assay: CellTiter-Glo cell viability assay; format: cell-based; conditions: Homo sapiens, ASPC1, 120 h, read-out: AsPC-1 Cell Viability assay data IC50, K-Ras G12D, 5-day treatment
Summary of the method: (§1)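 Luminescent viability readout on day 5, plates first brought to room temperature for ~30 min; compounds added straight to plated RAS-mutant cells. Values expressed as percent of mean DMSO signal, curves fitted with a four-parameter logistic model.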

NCI-H358 (K-Ras G12C) = assay: CellTiter-Glo cell viability assay; format: cell-based; conditions: Homo sapiens, NCI-H358, 120 h, read-out: H358 Cell Viability assay data IC50, K-Ras G12C, 5-day treatment
Summary of the method: as §1

KRAS G12D = KRAS G12D (Homo sapiens, UniProt P01116+P62937, G12D); assay: Ras-Raf disruption / FRET / MOA assay (BRAF RBD); format: biochemical; conditions: KRAS G12D FRET data IC50, Ras-Raf disruption, with Cyclophilin A
KRAS G12D, sequence (P01116 1-169 isoform P01116-2 G12D limits assumed): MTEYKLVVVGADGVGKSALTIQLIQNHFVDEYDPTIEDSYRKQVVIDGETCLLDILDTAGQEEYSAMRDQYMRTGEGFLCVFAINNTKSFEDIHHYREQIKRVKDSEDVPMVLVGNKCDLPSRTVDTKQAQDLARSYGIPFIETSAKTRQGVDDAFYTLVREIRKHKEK
KRAS G12D, sequence (P62937 whole entry): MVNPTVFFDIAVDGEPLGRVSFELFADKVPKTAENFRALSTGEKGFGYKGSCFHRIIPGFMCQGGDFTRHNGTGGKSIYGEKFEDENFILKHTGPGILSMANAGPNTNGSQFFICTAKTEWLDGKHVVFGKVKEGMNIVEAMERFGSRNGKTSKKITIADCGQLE
Summary of the method: (§2)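 Compound-induced Ras–Cyclophilin A ternary complex disrupting BRAF RBD binding, read as IC50 from reduced TR-FRET ratio relative to DMSO. Final: Ras-GMPPNP 12.5 nM, BRAF RBD 50 nM, Cyclophilin A 25 μM, top compound 30 μM (3-fold, 10 points); 3 h at 25 °C, then 1.5 h with detection antibodies.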

KRAS G12S = KRAS G12S (Homo sapiens, UniProt P01116+P62937, G12S); assay: Ras-Raf disruption / FRET / MOA assay (BRAF RBD); format: biochemical; conditions: KRAS G12S FRET data IC50, Ras-Raf disruption, with Cyclophilin A
KRAS G12S, sequence (P01116 1-169 isoform P01116-2 G12S limits assumed): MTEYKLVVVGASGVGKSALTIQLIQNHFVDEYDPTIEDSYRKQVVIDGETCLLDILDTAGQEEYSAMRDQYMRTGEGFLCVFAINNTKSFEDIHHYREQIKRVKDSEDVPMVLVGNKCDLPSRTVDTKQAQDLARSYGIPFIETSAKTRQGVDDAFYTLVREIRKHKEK
KRAS G12S, sequence (P62937 whole entry): as the sequence (P62937 whole entry) above
Summary of the method: as §2

KRAS G12V = KRAS G12V (Homo sapiens, UniProt P01116+P62937, G12V); assay: Ras-Raf disruption / FRET / MOA assay (BRAF RBD); format: biochemical; conditions: KRAS G12V FRET data IC50, Ras-Raf disruption, with Cyclophilin A
KRAS G12V, sequence (P01116 1-169 isoform P01116-2 G12V limits assumed): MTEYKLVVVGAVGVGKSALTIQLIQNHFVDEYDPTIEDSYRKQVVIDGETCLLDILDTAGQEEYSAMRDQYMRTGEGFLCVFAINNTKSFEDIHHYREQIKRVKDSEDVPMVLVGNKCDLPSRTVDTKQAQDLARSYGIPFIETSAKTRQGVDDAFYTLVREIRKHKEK
KRAS G12V, sequence (P62937 whole entry): as the sequence (P62937 whole entry) above
Summary of the method: as §2

KRAS G13C = KRAS G13C (Homo sapiens, UniProt P01116+P62937, G13C); assay: Ras-Raf disruption / FRET / MOA assay (BRAF RBD); format: biochemical; conditions: KRAS G13C FRET data IC50, Ras-Raf disruption, with Cyclophilin A
KRAS G13C, sequence (P01116 1-169 isoform P01116-2 G13C limits assumed): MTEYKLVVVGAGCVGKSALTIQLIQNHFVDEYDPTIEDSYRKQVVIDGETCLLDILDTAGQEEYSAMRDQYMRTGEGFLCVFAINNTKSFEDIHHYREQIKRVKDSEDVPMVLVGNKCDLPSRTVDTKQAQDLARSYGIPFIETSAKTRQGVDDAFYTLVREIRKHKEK
KRAS G13C, sequence (P62937 whole entry): as the sequence (P62937 whole entry) above
Summary of the method: as §2

KRAS G13D = KRAS G13D (Homo sapiens, UniProt P01116+P62937, G13D); assay: Ras-Raf disruption / FRET / MOA assay (BRAF RBD); format: biochemical; conditions: KRAS G13D FRET data IC50, Ras-Raf disruption, with Cyclophilin A
KRAS G13D, sequence (P01116 1-169 isoform P01116-2 G13D limits assumed): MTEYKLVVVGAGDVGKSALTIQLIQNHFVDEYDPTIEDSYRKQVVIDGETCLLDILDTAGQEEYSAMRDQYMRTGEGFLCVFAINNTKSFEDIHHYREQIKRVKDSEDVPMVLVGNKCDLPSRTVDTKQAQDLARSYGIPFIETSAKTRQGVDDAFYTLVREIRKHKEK
KRAS G13D, sequence (P62937 whole entry): as the sequence (P62937 whole entry) above
Summary of the method: as §2

KRAS Q61H = KRAS Q61H (Homo sapiens, UniProt P01116+P62937, Q61H); assay: Ras-Raf disruption / FRET / MOA assay (BRAF RBD); format: biochemical
KRAS Q61H, sequence (P01116 1-169 isoform P01116-2 Q61H limits assumed): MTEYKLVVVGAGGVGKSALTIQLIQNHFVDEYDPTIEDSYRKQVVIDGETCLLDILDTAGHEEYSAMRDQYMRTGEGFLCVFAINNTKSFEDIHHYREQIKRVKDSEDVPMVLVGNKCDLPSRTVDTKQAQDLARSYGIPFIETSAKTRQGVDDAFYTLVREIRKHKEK
KRAS Q61H, sequence (P62937 whole entry): as the sequence (P62937 whole entry) above
Summary of the method: as §2

KRAS WT = KRAS WT (Homo sapiens, UniProt P01116+P62937); assay: Ras-Raf disruption / FRET / MOA assay (BRAF RBD); format: biochemical; conditions: KRAS WT FRET data IC50, Ras-Raf disruption, with Cyclophilin A
KRAS WT, sequence (P01116 1-169 isoform P01116-2 limits assumed): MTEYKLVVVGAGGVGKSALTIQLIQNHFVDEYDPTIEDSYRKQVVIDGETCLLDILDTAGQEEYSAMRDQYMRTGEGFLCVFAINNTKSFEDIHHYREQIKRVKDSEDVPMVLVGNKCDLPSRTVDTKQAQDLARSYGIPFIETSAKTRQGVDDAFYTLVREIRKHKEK
KRAS WT, sequence (P62937 whole entry): as the sequence (P62937 whole entry) above
Summary of the method: as §2

NRAS G12C = NRAS G12C (Homo sapiens, UniProt P01111+P62937, G12C); assay: Ras-Raf disruption / FRET / MOA assay (BRAF RBD); format: biochemical; conditions: NRAS G12C FRET data IC50, NRAS G12C
NRAS G12C, sequence (P01111 whole entry G12C): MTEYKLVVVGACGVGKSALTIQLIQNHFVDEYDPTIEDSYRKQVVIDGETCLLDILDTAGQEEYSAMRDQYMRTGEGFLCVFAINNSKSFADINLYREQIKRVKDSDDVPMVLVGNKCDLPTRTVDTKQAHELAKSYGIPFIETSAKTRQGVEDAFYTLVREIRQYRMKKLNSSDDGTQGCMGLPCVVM
NRAS G12C, sequence (P62937 whole entry): as the sequence (P62937 whole entry) above
Summary of the method: as §2

NRAS Q61K = NRAS Q61K (Homo sapiens, UniProt P01111+P62937, Q61K); assay: Ras-Raf disruption / FRET / MOA assay (BRAF RBD); format: biochemical
NRAS Q61K, sequence (P01111 whole entry Q61K): as the sequence (P01111 whole entry G12C) above, with C12G, Q61K counted along it
NRAS Q61K, sequence (P62937 whole entry): as the sequence (P62937 whole entry) above
Summary of the method: as §2

NRAS Q61R = NRAS Q61R (Homo sapiens, UniProt P01111+P62937, Q61R); assay: Ras-Raf disruption / FRET / MOA assay (BRAF RBD); format: biochemical
NRAS Q61R, sequence (P01111 whole entry Q61R): as the sequence (P01111 whole entry G12C) above, with C12G, Q61R counted along it
NRAS Q61R, sequence (P62937 whole entry): as the sequence (P62937 whole entry) above
Summary of the method: as §2

NRAS WT = NRAS WT (Homo sapiens, UniProt P01111+P62937); assay: Ras-Raf disruption / FRET / MOA assay (BRAF RBD); format: biochemical
NRAS WT, sequence (P01111 whole entry): as the sequence (P01111 whole entry G12C) above, with C12G counted along it
NRAS WT, sequence (P62937 whole entry): as the sequence (P62937 whole entry) above
Summary of the method: as §2

KRAS G12C = KRAS G12C (Homo sapiens, UniProt P01116+P62937, G12C); assay: Ras-Raf disruption / FRET / MOA assay (BRAF RBD); format: biochemical; conditions: KRAS G12C FRET data IC50, Ras-Raf disruption, with Cyclophilin A
KRAS G12C, sequence (P01116 1-169 isoform P01116-2 G12C limits assumed): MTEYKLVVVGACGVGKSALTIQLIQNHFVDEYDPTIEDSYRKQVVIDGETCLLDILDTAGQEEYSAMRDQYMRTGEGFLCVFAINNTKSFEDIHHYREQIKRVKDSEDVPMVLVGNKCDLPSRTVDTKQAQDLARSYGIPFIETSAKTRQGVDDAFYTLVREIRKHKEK
KRAS G12C, sequence (P62937 whole entry): as the sequence (P62937 whole entry) above
Summary of the method: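 TR-FRET read-out after 1.5 h with anti-His Eu-W1024 (10 nM) and anti-GST APC (50 nM), following 3 h at 25 °C of compound (top 30 μM, 3-fold, 10 points) with 25 μM Cyclophilin A, 12.5 nM GMPPNP-loaded K-Ras G12C and 50 nM BRAF RBD; IC50 reported.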

CCn1c(-c2cccnc2[C@H](C)OC)c2c3cc(ccc31)-c1cc(O)cc(c1)C[C@H](NC(=O)[C@H](C(C)C)N(C)C(=O)CN(C)C(=O)[C@@H]1N[C@@H]1C(C)C)C(=O)N1CCC[C@H](N1)C(=O)OCC(C)(C)C2 [Example 264]
10 to 100 nM: IC50 (NCI-H358 (K-Ras G12C)) | IC50 (KRAS G12D) | IC50 (KRAS G12V) | IC50 (KRAS G13C) | IC50 (KRAS G13D) | IC50 (NRAS Q61K) | IC50 (NRAS Q61R)
< 5000 nM: EC50 (AsPC-1 (K-Ras G12D) [1])
100 to 1000 nM: IC50 (AsPC-1 (K-Ras G12D) [2])
< 10 nM: IC50 (KRAS G12S) | IC50 (KRAS Q61H) | IC50 (KRAS WT) | IC50 (NRAS G12C) | IC50 (NRAS WT) | IC50 (KRAS G12C)

CCn1c(-c2cccnc2[C@H](C)OC)c2c3cc(ccc31)-c1cc(O)cc(c1)C[C@H](NC(=O)[C@H](C(C)C)N(C)C(=O)CN(C)C(=O)[C@H]1N[C@H]1C(C)C)C(=O)N1CCC[C@H](N1)C(=O)OCC(C)(C)C2 [Example 265]
< 5000 nM: EC50 (AsPC-1 (K-Ras G12D) [1])
100 to 1000 nM: IC50 (AsPC-1 (K-Ras G12D) [2]) | IC50 (NRAS Q61K) | IC50 (NRAS Q61R)
10 to 100 nM: IC50 (NCI-H358 (K-Ras G12C)) | IC50 (KRAS G12D) | IC50 (KRAS G12S) | IC50 (KRAS G12V) | IC50 (KRAS G13C) | IC50 (KRAS G13D) | IC50 (KRAS Q61H) | IC50 (KRAS WT) | IC50 (NRAS G12C) | IC50 (NRAS WT) | IC50 (KRAS G12C)

CCn1c(-c2cccnc2[C@H](C)OC)c2c3cc(ccc31)-c1cc(O)cc(c1)C[C@H](NC(=O)[C@H](C(C)C)N(C)C(=O)CN(C)C(=O)[C@H]1CN1CCCOC(C)=O)C(=O)N1CCC[C@H](N1)C(=O)OCC(C)(C)C2 (stereo partly drawn) [Example 266]
10 to 100 nM: IC50 (KRAS G12S) | IC50 (KRAS G13C) | IC50 (KRAS Q61H)
< 10 nM: IC50 (NCI-H358 (K-Ras G12C)) | IC50 (NRAS G12C) | IC50 (KRAS G12C)
< 5000 nM: EC50 (AsPC-1 (K-Ras G12D) [1])
100 to 1000 nM: IC50 (AsPC-1 (K-Ras G12D) [2]) | IC50 (KRAS G12D) | IC50 (KRAS G12V) | IC50 (KRAS G13D) | IC50 (KRAS WT) | IC50 (NRAS Q61K) | IC50 (NRAS Q61R) | IC50 (NRAS WT)

CCn1c(-c2cccnc2[C@H](C)OC)c2c3cc(ccc31)-c1cc(O)cc(c1)C[C@H](NC(=O)[C@H](C(C)C)N(C)C(=O)CN(C)C(=O)[C@H]1CN1CC(=O)N(C)C)C(=O)N1CCC[C@H](N1)C(=O)OCC(C)(C)C2 (stereo partly drawn) [Example 270]
100 to 1000 nM: IC50 (AsPC-1 (K-Ras G12D) [2]) | IC50 (KRAS G12D) | IC50 (KRAS G12V) | IC50 (KRAS G13D) | IC50 (KRAS Q61H) | IC50 (KRAS WT) | IC50 (NRAS WT)
< 5000 nM: EC50 (AsPC-1 (K-Ras G12D) [1])
1000 to 10000 nM: IC50 (NRAS Q61K) | IC50 (NRAS Q61R)
10 to 100 nM: IC50 (NCI-H358 (K-Ras G12C)) | IC50 (KRAS G12S) | IC50 (KRAS G13C)
< 10 nM: IC50 (NRAS G12C) | IC50 (KRAS G12C)

CCn1c(-c2cccnc2[C@H](C)OC)c2c3cc(ccc31)-c1cc(O)cc(c1)C[C@H](NC(=O)[C@H](C(C)C)N(C)C(=O)CN(C)C(=O)[C@H]1CN1CCCC#N)C(=O)N1CCC[C@H](N1)C(=O)OCC(C)(C)C2 (stereo partly drawn) [Example 273]
100 to 1000 nM: IC50 (AsPC-1 (K-Ras G12D) [2]) | IC50 (KRAS G12D) | IC50 (KRAS G13D) | IC50 (NRAS Q61K) | IC50 (NRAS Q61R)
< 5000 nM: EC50 (AsPC-1 (K-Ras G12D) [1])
10 to 100 nM: IC50 (KRAS G12S) | IC50 (KRAS G12V) | IC50 (KRAS G13C) | IC50 (KRAS Q61H) | IC50 (KRAS WT) | IC50 (NRAS WT)
< 10 nM: IC50 (NCI-H358 (K-Ras G12C)) | IC50 (NRAS G12C) | IC50 (KRAS G12C)

CCn1c(-c2cccnc2[C@H](C)OC)c2c3cc(ccc31)-c1cc(O)cc(c1)C[C@H](NC(=O)[C@H](C(C)C)N(C)C(=O)CN(C)C(=O)[C@@H]1CN1CCCC#N)C(=O)N1CCC[C@H](N1)C(=O)OCC(C)(C)C2 (stereo partly drawn) [Example 274]
< 5000 nM: EC50 (AsPC-1 (K-Ras G12D) [1])
< 10 nM: IC50 (NCI-H358 (K-Ras G12C)) | IC50 (NRAS G12C) | IC50 (KRAS G12C)
10 to 100 nM: IC50 (KRAS G12D) | IC50 (KRAS G12S) | IC50 (KRAS G12V) | IC50 (KRAS G13C) | IC50 (KRAS G13D) | IC50 (KRAS Q61H) | IC50 (KRAS WT) | IC50 (NRAS WT)
100 to 1000 nM: IC50 (AsPC-1 (K-Ras G12D) [2]) | IC50 (NRAS Q61K) | IC50 (NRAS Q61R)
